Here are results for three compounds from patent US20030225152A1, “3-(Arylamino)methylene-1, 3-dihydro-2h-indol-2-ones as kinase inhibitors” (priority 2001, published 2003).

Data set [1] relates to Laser-induced Choroidal Neovascularization (CNV). As to the kind of experiment: Laser-induced Choroidal Neovascularization (CNV) in Rat (CNV Assay). The format is in vivo. The method, then: Laser-induced Choroidal Neovascularization (CNV) in Rat (CNV Assay). CNV was induced and quantified in this model as previously described (Edelman and Castro. Exp. Eye Res. 2000; 71:523-533). On day 0, male Brown Norway rats (200-300 g) were anesthetized with 100 mg/kg Ketamine and 10 mg/kg Xylazine, and pupils were dilated with 1% Tropicamide. Using the blue-green setting of a Coherent Novus Argon Laser, 3 laser bums (90 mW for 0.1 s; 100 μm diameter) were given to each eye between the retinal vessels around the optic nerve head. […]
On day 10, rats were sacrificed with 100% CO2, and blood vessels were labeled by vascular perfusion with 10 mg/ml FITC-dextran (MW 2×10^6). Using an epifluorescence microscope (20×) coupled to a spot digital camera and a PC, images were obtained from the flat mounts of the RPE-choroid-sclera from each eye, and the area occupied by hyperfluorescent neovessels within each laser lesion was measured using ImagePro 4 software.
To determine the dose required for 50% inhibition (ID50), the percent inhibition data was plotted as a function of oral dose, using the ‘best-fit’ analysis within MicroSoft Excel software. The ID50 value was verified visually by using the plotted data (horizontal line from 50% y value, at intersection with best-fit line drop vertical line to x axis (dose)).

Data set [2] relates to VEGF-induced EBD extravasation. Kind of data set: VEGF-induced Dermal Extravasation in Guinea Pig (Miles Assay). The format is in vivo.
Data set [3] addresses T1, cytoplasmic domain of the human VEGF receptor (VEGFR-2) (Homo sapiens, UniProt P35968).
T1 construct: The cytoplasmic domain of the human VEGF receptor (VEGFR-2) was expressed as a Histidine-tagged fusion protein; Histidine tag
Kind of data set: KDR Assay. The following applies: His-VEGFR-2; 3.6 μM ATP. In kind it is biochemical. In a few lines: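 IC50 taken from blank-corrected OD492 curves of an anti-phosphotyrosine peroxidase ELISA. Reaction: 10 min, 25 °C, 3.6 μM ATP, 50 mM Hepes pH 7.4 with 20 mM MgCl2, 0.1 mM MnCl2 and 5% DMSO, on poly-Glu-Tyr-coated wells, started with insect-cell-expressed His-VEGFR-2 cytoplasmic domain.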

Data set [4] concerns VEGF induced increases in intracellular calcium levels in HUVEC (human umbilical vein endothelial cells). Kind of data set: VEGF Stimulated Ca++ Signal in vitro (FLIPR). In kind it is cell-based. The following applies: VEGF 5 ng/mL; for IC50: 0.01 to 10.0 μM. In a few lines: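 IC50 values derive from % inhibition of the VEGF (5 ng/mL) calcium response, taken as max-min fluorescence at 516 nm in Fluo-4-loaded HUVEC. Compounds (0.1% DMSO final) were added 30 min before stimulation, at 10 μM or across 0.01–10.0 μM.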

Structures are written as SMILES. A value given as a limit tells only on which side of the number the result lay.

T1 sequence (P35968 786-1356): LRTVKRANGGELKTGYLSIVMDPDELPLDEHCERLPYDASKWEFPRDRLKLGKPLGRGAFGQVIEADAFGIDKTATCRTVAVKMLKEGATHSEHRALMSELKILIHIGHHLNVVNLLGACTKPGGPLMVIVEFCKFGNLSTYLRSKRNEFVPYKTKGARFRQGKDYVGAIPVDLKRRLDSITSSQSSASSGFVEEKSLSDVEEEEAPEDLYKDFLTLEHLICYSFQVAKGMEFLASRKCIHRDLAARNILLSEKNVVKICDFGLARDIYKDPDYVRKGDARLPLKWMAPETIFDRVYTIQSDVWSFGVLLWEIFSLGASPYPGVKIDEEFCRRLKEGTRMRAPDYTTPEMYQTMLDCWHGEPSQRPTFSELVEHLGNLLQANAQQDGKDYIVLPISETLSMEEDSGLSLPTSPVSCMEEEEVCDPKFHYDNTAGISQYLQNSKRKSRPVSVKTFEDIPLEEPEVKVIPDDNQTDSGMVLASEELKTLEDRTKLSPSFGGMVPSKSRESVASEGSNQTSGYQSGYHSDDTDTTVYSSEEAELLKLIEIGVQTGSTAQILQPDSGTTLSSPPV

With `O=C1Nc2ccccc2C1=CNc1ccc(NCCN2CCOCC2)cc1` [Example 235, 3-{[4-(2-Morpholin-4-yl-ethylamino)-phenylamino]-methylene}-1,3-dihydro-indol-2-one], in data set [1] (40 mg/kg (sid), corn oil, oral), the “CNV Assay % inhibition” value turned out to be 63%. Moreover, the “Miles Assay % inhibition” value in data set [2] (75 mg/kg, corn oil, oral) was 99%. Moreover, half-maximal inhibition in data set [3] (IC50) required 240 nM. In data set [4] (Homo sapiens), the inhibition (commonly how much of the control response was suppressed) at 10 µM was determined as 98.2%.

For `CC1CN(c2ccc(NC=C3C(=O)Nc4ccccc43)cc2)CC(C)O1` (stereo not shown) [Example 159, 3-{[4-(2,6-Dimethyl-morpholin-4-yl)-phenylamino]-methylene}-1,3-dihydro-indol-2-one], the “CNV Assay % inhibition” value in data set [1] (100 mg/kg (sid), 10% DMAC, 10% NMP, 80% PEG400, oral) is on record as 41%. Moreover, the “Miles Assay % inhibition” value in data set [2] (75 mg/kg, PEG400, oral) stood at 91%. For the same compound, the IC50 (as a rule, the concentration that inhibits the measured activity by half) was 350 nM in data set [3], 580 nM in data set [4] and at most 1000 nM in data set [4] (Homo sapiens). Also, in data set [4] (Homo sapiens), the inhibition at 10 µM stood at 97.4%.

`O=C1Nc2ccccc2C1=CNc1ccc(N2CCOCC2)cc1` [Example 40]: the “CNV Assay % inhibition” value came out at 95% in data set [1] (20 mg/kg (bid), PEG400, oral); 54% in data set [1] (20 mg/kg (sid), PEG400, oral); 96% in data set [1] (40 mg/kg (sid), PEG400, oral); 92% in data set [1] (50 mg/kg (bid), corn oil, oral); 74% in data set [1] (100 mg/kg (sid), corn oil, oral). In addition, the “CNV Assay % inhibition (toxicity noted)” value in data set [1] (100 mg/kg (sid), PEG400, oral) was “toxic”. Also, in data set [1] (oral dose for 50% inhibition), the “CNV Assay ID50 (mg/kg)” value is recorded as “˜20 mg/kg”. The “Miles Assay % inhibition” value is listed as 0% in data set [2] (1 mg/kg, I.V. bolus in 20% methyl cyclodextrin, preincubation period 0.5 h); 0% in data set [2] (1 mg/kg, I.V. bolus in 20% methyl cyclodextrin, preincubation period 1 h); 0% in data set [2] (1 mg/kg, I.V. bolus in 20% methyl cyclodextrin, preincubation period 2 h); 6% in data set [2] (10 mg/kg, 43% methyl cyclodextrin, preincubation period 1 h); 100% in data set [2] (75 mg/kg, PEG400, oral); 47% in data set [2] (75 mg/kg, corn oil, oral). For the same compound, the “Miles Assay % inhibition” value is given as 40% in data set [2] (75 mg/kg, homogenized corn oil, oral) and 52% in data set [2] (75 mg/kg, micronized corn oil, oral). In addition, in data set [2] (oral dose for 50% inhibition), the “Miles Assay ID50” value worked out at 18 mg/kg. Also, the IC50 in data set [3] turned out to be 250 nM. Moreover, the inhibition at 10 µM in data set [4] (Homo sapiens) was found to be 96.7%.
